From PMC2745557 (FEBS letters, 2009)

Key:
Bombyx AKHR [1] = biological target: T1, Bombyx AKHR (Bombyx mori, UniProt Q8T6U9); conditions: compared with AKH1; ref [12]; cited from earlier work
T1 sequence (Q8T6U9 1-405): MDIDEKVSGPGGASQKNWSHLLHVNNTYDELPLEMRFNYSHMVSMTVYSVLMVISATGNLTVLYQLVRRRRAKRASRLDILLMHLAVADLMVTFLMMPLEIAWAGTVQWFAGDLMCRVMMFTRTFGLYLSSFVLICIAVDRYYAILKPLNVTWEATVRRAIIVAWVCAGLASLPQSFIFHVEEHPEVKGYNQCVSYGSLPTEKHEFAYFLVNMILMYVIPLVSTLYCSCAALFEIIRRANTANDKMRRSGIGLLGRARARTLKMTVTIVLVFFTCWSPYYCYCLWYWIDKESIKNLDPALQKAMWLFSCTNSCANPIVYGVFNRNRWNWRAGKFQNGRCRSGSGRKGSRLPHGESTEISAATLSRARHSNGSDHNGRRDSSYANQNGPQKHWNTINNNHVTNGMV

Bombyx AKHR [2] = biological target: T1, Bombyx AKHR; type: cell-based

| Substance | affinity of activation of Bombyx AKHR (Bombyx AKHR [1]) | effect of toxin pre-treatment on cAMP generation (Bombyx AKHR [2]) |
| --- | --- | --- |
| Heliothis zea hypertrehalosaemic hormone [Hez-HrTH] | higher affinity than that of AKH1 |  |
| Pertussis toxin [PTX] |  | no effect on cAMP generation |
| cholera toxin [CTX] |  | remarkable increase in the cellular levels of cAMP |
